Data: patent publication US8906925B2, “Pyrido[4,3-B]indoles containing rigid moieties” (Medivation Technologies, Inc., priority 2008, dated 2014)
Like-named read-outs stand apart in the source and are kept apart here.

Key:
[1] = target: T1, human recombinant serotonin (5-Hydroxytryptamine) 5-HT6 receptor (Homo sapiens, UniProt P50406); experiment: Serotonin 5-HT6 radioligand binding ([3H]LSD); settings: read-out: Inhibition of ligand binding, Serotonin 5-HT6 (percent inhibition of specific binding); for inhibition at 0.1 µM: compound at 0.1 μM
T1 construct: expressed in transfected cells; host or cells: human HeLa cells
T1 sequence (P50406 whole entry): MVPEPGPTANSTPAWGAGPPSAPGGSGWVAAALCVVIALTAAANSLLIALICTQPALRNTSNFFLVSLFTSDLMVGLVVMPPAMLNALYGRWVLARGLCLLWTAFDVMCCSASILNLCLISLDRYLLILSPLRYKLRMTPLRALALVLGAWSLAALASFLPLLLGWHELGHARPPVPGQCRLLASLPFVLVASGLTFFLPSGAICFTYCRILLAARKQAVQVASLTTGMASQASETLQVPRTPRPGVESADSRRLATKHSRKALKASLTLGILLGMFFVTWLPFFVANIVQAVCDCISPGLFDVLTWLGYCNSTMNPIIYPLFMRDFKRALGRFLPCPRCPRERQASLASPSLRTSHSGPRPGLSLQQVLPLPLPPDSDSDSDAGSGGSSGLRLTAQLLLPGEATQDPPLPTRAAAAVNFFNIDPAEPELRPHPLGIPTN
Procedure: Compounds of the invention were incubated with 1.5 nM [3H]Lysergic acid diethylamide (LSD) for 120 min. at 37° C. […] Receptor proteins were filtered and washed, the filters were then counted to determine [3H]LSD specifically bound. Compounds were screened at 1 μM or lower, using 1% DMSO as vehicle. Biochemical assay results are presented as the percent inhibition of specific binding in Table 10.

[2] = target: T2, human recombinant serotonin (5-Hydroxytryptamine) 5-HT2A receptor (Homo sapiens, UniProt P28223); experiment: Serotonin 5-HT2A radioligand binding ([3H]Ketanserin); settings: for inhibition at 0.1 µM: read-out: Inhibition of ligand binding, Serotonin 5-HT2A (percent inhibition of specific binding), compound at 0.1 μM; for inhibition at 1 µM: read-out: Inhibition of ligand binding, Serotonin 5-HT2A (percent inhibition of specific binding), compound at 1 μM
T2 construct: expressed in transfected cells; host or cells: Chinese hamster ovary (CHO-K1) cells
T2 sequence (P28223 whole entry): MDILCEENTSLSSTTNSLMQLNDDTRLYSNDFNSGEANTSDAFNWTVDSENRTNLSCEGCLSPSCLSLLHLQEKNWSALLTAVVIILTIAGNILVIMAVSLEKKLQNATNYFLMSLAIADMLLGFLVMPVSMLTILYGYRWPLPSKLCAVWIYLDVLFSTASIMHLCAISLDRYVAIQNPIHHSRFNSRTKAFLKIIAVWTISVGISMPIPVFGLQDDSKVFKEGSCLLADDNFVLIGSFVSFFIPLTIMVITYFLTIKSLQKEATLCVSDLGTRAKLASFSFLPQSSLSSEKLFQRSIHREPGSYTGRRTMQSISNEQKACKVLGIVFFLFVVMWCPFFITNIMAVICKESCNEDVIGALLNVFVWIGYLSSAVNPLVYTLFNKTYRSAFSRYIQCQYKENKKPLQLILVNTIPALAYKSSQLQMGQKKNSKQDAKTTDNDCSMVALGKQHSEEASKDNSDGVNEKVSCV
Procedure: Compounds of the invention were incubated with 0.5 nM [^3H]Ketanserin for 60 min. at 25° C. Non-specific binding was estimated in the presence of 1 μM Mianserin. Receptor proteins were filtered and washed, the filters were then counted to determine [^3H]Ketanserin specifically bound.

histamine receptor H1 = histamine receptor H1 (Homo sapiens, UniProt P35367); experiment: Histamine H1 radioligand binding ([3H]Pyrilamine); settings: for inhibition at 1 µM: read-out: Histamine Binding (1 μM) H1, percent inhibition of specific binding, 1 μM
Sequence of histamine receptor H1 (P35367 whole entry): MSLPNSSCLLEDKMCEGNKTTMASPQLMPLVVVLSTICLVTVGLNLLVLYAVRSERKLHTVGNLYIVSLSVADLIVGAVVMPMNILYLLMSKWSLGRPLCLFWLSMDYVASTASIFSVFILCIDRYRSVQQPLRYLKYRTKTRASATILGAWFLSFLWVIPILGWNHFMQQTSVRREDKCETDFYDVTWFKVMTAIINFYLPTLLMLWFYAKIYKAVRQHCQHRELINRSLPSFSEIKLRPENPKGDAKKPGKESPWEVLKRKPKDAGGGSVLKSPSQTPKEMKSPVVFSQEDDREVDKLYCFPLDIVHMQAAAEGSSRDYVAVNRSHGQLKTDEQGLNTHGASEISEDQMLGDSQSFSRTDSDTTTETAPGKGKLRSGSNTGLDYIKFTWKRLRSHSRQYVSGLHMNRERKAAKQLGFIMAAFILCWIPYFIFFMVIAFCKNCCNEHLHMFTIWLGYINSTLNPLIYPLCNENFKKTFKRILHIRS
Method in brief: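 Values are percent inhibition of specific [3H]pyrilamine (1.2 nM) binding with compounds at ≤1 μM (1% DMSO vehicle); 180 min incubation at 25 °C, pH 7.4 Tris buffer, on CHO-expressed human H1 receptor; 1 μM pyrilamine defined nonspecific binding, bound ligand counted after filtration.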

[3] = target: human recombinant serotonin (5-Hydroxytryptamine) 5-HT7 receptor (Homo sapiens, UniProt P34969); experiment: Serotonin 5-HT7 radioligand binding ([3H]LSD); settings: compound at 0.1 μM; read-out: Inhibition of ligand binding, Serotonin 5-HT7 (percent inhibition of specific binding)
Sequence of human recombinant serotonin (5-Hydroxytryptamine) 5-HT7 receptor (P34969 whole entry): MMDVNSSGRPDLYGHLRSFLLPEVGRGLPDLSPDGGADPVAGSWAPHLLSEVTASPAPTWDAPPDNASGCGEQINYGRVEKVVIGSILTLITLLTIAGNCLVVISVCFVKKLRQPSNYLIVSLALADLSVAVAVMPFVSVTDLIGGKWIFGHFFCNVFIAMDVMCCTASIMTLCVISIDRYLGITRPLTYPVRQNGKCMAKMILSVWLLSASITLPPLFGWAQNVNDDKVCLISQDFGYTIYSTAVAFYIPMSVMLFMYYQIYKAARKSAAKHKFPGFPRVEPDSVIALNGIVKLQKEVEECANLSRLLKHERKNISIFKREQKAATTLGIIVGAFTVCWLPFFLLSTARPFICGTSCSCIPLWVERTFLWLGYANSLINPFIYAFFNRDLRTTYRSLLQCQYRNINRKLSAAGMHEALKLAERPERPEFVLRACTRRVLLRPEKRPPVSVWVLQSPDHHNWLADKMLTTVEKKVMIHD
Text: Receptor proteins were filtered and washed, the filters were then counted to determine [^3H]LSD specifically bound.

[4] = target: T3, human recombinant serotonin (5-Hydroxytryptamine) 5-HT2C receptor (Homo sapiens, UniProt P28335); experiment: Serotonin 5-HT2C radioligand binding ([3H]Mesulergine); settings: read-out: Inhibition of ligand binding, Serotonin 5-HT2C (percent inhibition of specific binding); for inhibition at 0.1 µM: compound at 0.1 μM
T3 construct: expressed in transfected cells; host or cells: Chinese hamster ovary (CHO-K1) cells
T3 sequence (P28335 33-458): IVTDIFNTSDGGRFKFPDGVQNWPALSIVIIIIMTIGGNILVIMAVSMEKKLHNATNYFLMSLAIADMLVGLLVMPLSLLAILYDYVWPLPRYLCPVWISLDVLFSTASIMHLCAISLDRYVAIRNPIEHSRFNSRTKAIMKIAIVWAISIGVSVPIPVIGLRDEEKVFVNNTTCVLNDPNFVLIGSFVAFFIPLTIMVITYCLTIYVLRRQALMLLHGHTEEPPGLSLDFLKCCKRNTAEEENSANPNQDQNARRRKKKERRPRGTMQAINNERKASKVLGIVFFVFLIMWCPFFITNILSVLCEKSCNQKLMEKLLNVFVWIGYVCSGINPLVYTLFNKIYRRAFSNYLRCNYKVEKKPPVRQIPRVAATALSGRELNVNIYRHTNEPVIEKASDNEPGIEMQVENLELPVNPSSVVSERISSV
Procedure: Compounds of the invention were incubated with 1 nM [^3H]Mesulergine for 60 min. at 25° C. Non-specific binding was estimated in the presence of 1 μM Mianserin. Receptor proteins were filtered and washed, the filters were then counted to determine [^3H]Mesulergine specifically bound. Compounds were screened at 1 μM or lower, using 1% DMSO as vehicle. Biochemical assay results are presented as the percent inhibition of specific binding in Table 10.

[5] = target: human dopamine D2L receptor (Homo sapiens, UniProt P14416); experiment: Dopamine D2L radioligand binding ([3H]Spiperone); settings: compound at 1 μM
Sequence of human dopamine D2L receptor (P14416 whole entry): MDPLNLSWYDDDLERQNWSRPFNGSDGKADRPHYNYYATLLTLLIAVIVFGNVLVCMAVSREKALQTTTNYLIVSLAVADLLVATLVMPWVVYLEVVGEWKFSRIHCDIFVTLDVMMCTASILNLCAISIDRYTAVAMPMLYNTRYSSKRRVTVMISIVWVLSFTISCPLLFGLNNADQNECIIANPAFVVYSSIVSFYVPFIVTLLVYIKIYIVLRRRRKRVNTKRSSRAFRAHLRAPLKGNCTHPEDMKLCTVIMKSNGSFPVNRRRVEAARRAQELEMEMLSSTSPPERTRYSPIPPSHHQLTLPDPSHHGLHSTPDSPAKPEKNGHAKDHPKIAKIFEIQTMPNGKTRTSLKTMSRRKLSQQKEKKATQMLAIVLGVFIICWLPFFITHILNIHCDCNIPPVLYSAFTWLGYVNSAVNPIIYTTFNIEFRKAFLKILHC
Text: Non-specific binding was estimated in the presence of […] Haloperidol. Receptor proteins were filtered and washed, the filters were then counted to determine [^3H]Spiperone specifically bound. […] Biochemical assay results are presented as the percent inhibition of specific binding in Table 9.

[6] = percent inhibition of specific binding, read-out: Inhibition of ligand binding, Dopamine D2L
[7] = […] [3H]Spiperone, read-out: Inhibition of ligand binding, Dopamine D2L (percent inhibition of specific binding)

| inhibition at 1 µM [5, 7] [%] | inhibition at 1 µM ([1]; compound at 1 μM) [%] | inhibition at 1 µM ([4]; compound at 1 μM) [%] | SMILES | inhibition at 0.1 µM [1] [%] | inhibition at 0.1 µM [2] [%] | Histamine Binding (1 μM) H1, percent inhibition of specific binding (histamine receptor H1; 1 μM) [%] | inhibition at 0.1 µM [3] [%] | inhibition at 0.1 µM [4] [%] | Inhibition of ligand binding, Dopamine D2L ([5]; percent inhibition of specific binding, 1 µM) [%] | inhibition at 1 µM (histamine receptor H1) [%] | inhibition at 1 µM [5, 6] [%] | inhibition at 1 µM [2] [%] |
| --- | --- | --- | --- | --- | --- | --- | --- | --- | --- | --- | --- | --- |
|  |  |  | CC(=Cn1c2c(c3cc(Cl)ccc31)CN(C)CC2)c1ccc(F)cc1F (stereo in doubt) [Compound 107, 8-chloro-5-((Z)-2-(2,4-difluorophenyl)prop-1-enyl)-2,3,4,5-tetrahydro-2-methyl-1H-pyrido[4,3-b]indole] | 97 | 96 | 88 | 95 | 95 | 72 |  |  |  |
|  |  |  | COc1ccc([C@](C)(O)Cn2c3c(c4cc(C)ccc42)CN(C)CC3)cc1 [Compound 191, 1-(2,8-dimethyl-3,4-dihydro-1H-pyrido[4,3-b]indol-5(2H)-yl)-2-(4-methoxyphenyl)propan-2-ol] | 45 | 98 |  | 69 | 94 |  | 23 | 15 |  |
|  |  |  | COc1ccc([C@@](C)(O)Cn2c3c(c4cc(C)ccc42)CN(C)CC3)cc1 [Compound 192, 1-(2,8-dimethyl-3,4-dihydro-1H-pyrido[4,3-b]indol-5(2H)-yl)-2-(4-methoxyphenyl)propan-2-ol] | 38 | 91 |  | 78 | 81 |  | 61 | 34 |  |
|  |  |  | CC(C)C(O)(Cn1c2c(c3cc(Cl)ccc31)CN(C)CC2)c1ccncc1 (centres unmarked) [Compound 193, 1-(8-chloro-2-methyl-3,4-dihydro-1H-pyrido[4,3-b]indol-5(2H)-yl)-3-methyl-2-(pyridin-4-yl)butan-2-ol] | 3 | 69 |  | 40 | 44 |  | -7 | 14 |  |
|  |  |  | Cc1ccc2c(c1)c1c(n2CC(O)(c2ccncc2)C(C)C)CCN(C)C1 (centres unmarked) [Compound 194, 1-(2,8-dimethyl-3,4-dihydro-1H-pyrido[4,3-b]indol-5(2H)-yl)-3-methyl-2-(pyridin-4-yl)butan-2-ol] | 7 | 71 |  | 16 | 47 |  | 9 | 12 |  |
|  |  |  | CCC(O)(Cn1c2c(c3cc(Cl)ccc31)CN(C)CC2)c1ccncc1 (centres unmarked) [Compound 195, 1-(8-chloro-2-methyl-3,4-dihydro-1H-pyrido[4,3-b]indol-5(2H)-yl)-2-(pyridin-4-yl)butan-2-ol] | 32 | 62 |  | 18 | 43 |  | 20 | 17 |  |
|  |  |  | CCC(O)(Cn1c2c(c3cc(C)ccc31)CN(C)CC2)c1ccncc1 (centres unmarked) [Compound 196, 1-(2,8-dimethyl-3,4-dihydro-1H-pyrido[4,3-b]indol-5(2H)-yl)-2-(pyridin-4-yl)butan-2-ol] | 10 | 36 |  | 12 | 8 |  | 19 | 9 |  |
|  |  |  | Cc1ccc2c(c1)c1c(n2CC(C)(O)c2ccncn2)CCN(C)C1 (centres unmarked) [Compound 197, 1-(2,8-dimethyl-3,4-dihydro-1H-pyrido[4,3-b]indol-5(2H)-yl)-2-(pyrimidin-4-yl)propan-2-ol] | 4 | 17 |  | 10 | 16 |  | 61 | 14 |  |
|  |  |  | CN1CCc2c(c3cc(Cl)ccc3n2CC(C)(O)c2ccncn2)C1 (centres unmarked) [Compound 198, 1-(8-chloro-2-methyl-3,4-dihydro-1H-pyrido[4,3-b]indol-5(2H)-yl)-2-(pyrimidin-4-yl)propan-2-ol] | 11 | 23 |  | 4 | -1 |  | 64 | 5 |  |
|  |  |  | CN1CCc2c(c3cc(Cl)ccc3n2CC(C)(O)c2cnccn2)C1 (centres unmarked) [Compound 199, 1-(8-chloro-2-methyl-3,4-dihydro-1H-pyrido[4,3-b]indol-5(2H)-yl)-2-(pyrazin-2-yl)propan-2-ol] | 25 | 40 |  | 30 | 33 |  | 61 | 16 |  |
|  |  |  | Cc1ccc2c(c1)c1c(n2CC(C)(O)c2cnccn2)CCN(C)C1 (centres unmarked) [Compound 200, 1-(2,8-dimethyl-3,4-dihydro-1H-pyrido[4,3-b]indol-5(2H)-yl)-2-(pyrazin-2-yl)propan-2-ol] | 20 | 30 |  | 31 | 17 |  | 45 | 6 |  |
|  |  |  | C/C(=C\n1c2c(c3cc(Cl)c(Cl)cc31)CN(C)CC2)c1ccc(F)cc1 [Compound 248, (E)-7,8-dichloro-5-(2-(4-fluorophenyl)prop-1-enyl)-2-methyl-2,3,4,5-tetrahydro-1H-pyrido[4,3-b]indole] | 101 | 108 |  | 57 | 92 |  | 90 | 95 |  |
| 92 | 95 | 90 | C/C(=C\n1c2c(c3cc(Cl)ccc31)CN(CCC(C)(C)O)CC2)c1ccncc1 [compound 404, (E)-4-(8-chloro-5-(2-(pyridin-4-yl)prop-1-enyl)-3,4-dihydro-1H-pyrido[4,3-b]indol-2(5H)-yl)-2-methylbutan-2-ol] |  |  |  |  |  |  | 37 |  |  |
| 80 |  |  | COc1c(F)cc(/C(C)=C/n2c3c(c4cc(C)ccc42)CN(C)CC3)cc1F [compound 456, (E)-5-(2-(3,5-difluoro-4-methoxyphenyl)prop-1-enyl)-2,8-dimethyl-2,3,4,5-tetrahydro-1H-pyrido[4,3-b]indole] |  |  |  |  |  |  | 17 |  |  |
| 53 |  |  | C/C(=C\n1c2c(c3cc(C)ccc31)CN(C)CC2)c1cccc(C(=O)N(C)C)c1 [compound 457, (E)-3-(1-(2,8-dimethyl-3,4-dihydro-1H-pyrido[4,3-b]indol-5(2H)-yl)prop-1-en-2-yl)-N,N-dimethylbenzamide] |  |  |  |  |  |  | 37 |  |  |

| SMILES | inhibition at 1 µM [5, 7] [%] | inhibition at 1 µM ([1]; compound at 1 μM) [%] | inhibition at 1 µM ([4]; compound at 1 μM) [%] | inhibition at 0.1 µM [1] [%] | inhibition at 0.1 µM [2] [%] | Histamine Binding (1 μM) H1, percent inhibition of specific binding (histamine receptor H1; 1 μM) [%] | inhibition at 0.1 µM [3] [%] | inhibition at 0.1 µM [4] [%] | Inhibition of ligand binding, Dopamine D2L ([5]; percent inhibition of specific binding, 1 µM) [%] | inhibition at 1 µM (histamine receptor H1) [%] | inhibition at 1 µM [5, 6] [%] | inhibition at 1 µM [2] [%] |
| --- | --- | --- | --- | --- | --- | --- | --- | --- | --- | --- | --- | --- |
| CN1CCc2c(c3cccc(Cl)c3n2C[C@@](C)(O)c2ccncc2)C1 [Compound No. 469, (S)-1-(6-chloro-2-methyl-3,4-dihydro-1H-pyrido[4,3-b]indol-5(2H)-yl)-2-(pyridin-4-yl)propan-2-ol] | 12 |  |  |  |  |  |  |  |  | 14 |  | 87 |
| CN1CCc2c(c3cccc(Cl)c3n2C[C@](C)(O)c2ccncc2)C1 [Compound No. 470, (R)-1-(6-chloro-2-methyl-3,4-dihydro-1H-pyrido[4,3-b]indol-5(2H)-yl)-2-(pyridin-4-yl)propan-2-ol] | 1 |  |  |  |  |  |  |  |  | 17 |  | 89 |
